According to US12281122B1, “PI3K inhibitors” (Cogent Biosciences, Inc., priority 2023, dated 2025):

Legend:
[1] = tested on: T47D (PI3Kα-H1047R) cell line; test: HTRF phospho-AKT(S473) cell assay in T47D cells; assay type: cell-based, human; conditions: Homo sapiens, 2 hours compound incubation
How it was run: (§1)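 HTRF read-out of phospho-AKT(S473) in lysates gave IC50 values after 2 h compound exposure at 37° C. Dose series was 12 points at 1:3, topping at 5 μM for T47D and 10 μM for SKBR3. Only SKBR3 received 70 ng/ml PDGF-BB during the last 15 minutes.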

[2] = tested on: SKBR3 (PI3Kα-Wild Type) cell line; test: HTRF phospho-AKT(S473) cell assay in SKBR3 cells; assay type: cell-based, human; conditions: Homo sapiens, SK-BR-3, 2 hours compound incubation, PDGF-BB stimulated
How it was run: as §1

[3] = T47D (PI3Kα-H1047R) cells, HTRF phospho-AKT(S473)
[4] = SKBR3 (PI3Kα-Wild Type) cells, HTRF phospho-AKT(S473)
[5] = HTRF phospho-AKT(S473), T47D (PI3Kα-H1047R) cells
[6] = HTRF phospho-AKT(S473), SKBR3 (PI3Kα-Wild Type) cells

Row | SMILES | IC50 [1, 3] [nM] | IC50 [2, 4] [nM] | IC50 [1, 5] [nM] | IC50 [2, 6] [nM] | also measured
1 | Cc1cc([C@@H](C)Nc2ccc(Cl)nc2C(=O)NS(C)(=O)=O)c2nc(N3CCC(C)(c4ccn(C)n4)CC3)n(C)c(=O)c2c1 [Compound 301, (R)-6-chloro-3-((1-(3,6-dimethyl-2-(4-methyl-4-(1-methyl-1H-pyrazol-3-yl)piperidin-1-yl)-4-oxo-3,4-dihydroquinazolin-8-yl)ethyl)amino)-N-(methylsulfonyl) picolinamide] | < 250 | ≥ 5000 |  |  | 
2 | Cc1cc([C@@H](C)Nc2ccc(Cl)nc2C(=O)NS(C)(=O)=O)c2nc(C3CCN(c4ccccc4)CC3)n(C)c(=O)c2c1 [Compound 831, (R)-6-chloro-3-((1-(3,6-dimethyl-4-oxo-2-(1-phenylpiperidin-4-yl)-3,4-dihydroquinazolin-8-yl)ethyl)amino)-N-(methylsulfonyl) picolinamide] |  |  | 250 to 500 | 1000 to 5000 | 
3 | Cc1cc([C@@H](C)Nc2ccc(Cl)nc2C(=O)NS(C)(=O)=O)c2nc(N3CC[C@H](Oc4cnc(C)cn4)C3)n(C)c(=O)c2c1 [Compound 631, 6-chloro-3-(((R)-1-(3,6-dimethyl-2-((S)-3-((5-methylpyrazin-2-yl)oxy)pyrrolidin-1-yl)-4-oxo-3,4-dihydroquinazolin-8-yl)ethyl)amino)-N-(methylsulfonyl) picolinamide] |  |  | < 250 | 1000 to 5000 | 
4 | Cc1cc([C@@H](C)Nc2ccc(Cl)nc2C(=O)NS(C)(=O)=O)c2nc(N3CC[C@@H](c4ccc(C)nc4)C3)n(C)c(=O)c2c1 (relative stereo) [Compound 659, 6-chloro-3-(((R)-1-(3,6-dimethyl-2-((R*)-3-(6-methylpyridin-3-yl)pyrrolidin-1-yl)-4-oxo-3,4-dihydroquinazolin-8-yl)ethyl)amino)-N-(methylsulfonyl) picolinamide] |  |  | < 250 | 1000 to 5000 | 
5 | Cc1cc([C@@H](C)Nc2ccc(Cl)nc2C(=O)NS(C)(=O)=O)c2nc(N3CCC(c4nn(C)cc4F)CC3)n(C)c(=O)c2c1 [Compound 247, (R)-6-chloro-3-((1-(2-(4-(4-fluoro-1-methyl-1H-pyrazol-3-yl)piperidin-1-yl)-3,6-dimethyl-4-oxo-3,4-dihydroquinazolin-8-yl)ethyl)amino)-N-(methylsulfonyl) picolinamide] | < 250 | 1000 to 5000 |  |  | 
6 | Cc1cc([C@@H](C)Nc2ccc(Cl)nc2C(=O)NS(C)(=O)=O)c2nc(N3CCC(c4nccnc4C)CC3)n(C)c(=O)c2c1 [Compound 438, (R)-6-chloro-3-((1-(3,6-dimethyl-2-(4-(3-methylpyrazin-2-yl)piperidin-1-yl)-4-oxo-3,4-dihydroquinazolin-8-yl)ethyl)amino)-N-(methylsulfonyl) picolinamide] | 250 to 500 | ≥ 5000 |  |  | 
7 | Cc1cc([C@@H](C)Nc2ccc(Cl)nc2C(=O)NS(C)(=O)=O)c2nc(N3CCN4C[C@H](n5cc(C)cn5)C[C@H]4C3)n(C)c(=O)c2c1 [Compound 680, 6-chloro-3-(((R)-1-(3,6-dimethyl-2-((7R,8aS)-7-(4-methyl-1H-pyrazol-1-yl)hexahydropyrrolo[1,2-a]pyrazin-2(1H)-yl)-4-oxo-3,4-dihydroquinazolin-8-yl)ethyl)amino)-N-(methylsulfonyl) picolinamide] |  |  | 250 to 500 | ≥ 5000 | 
8 | Cc1cc([C@@H](C)Nc2ccc(Cl)nc2C(=O)NS(C)(=O)=O)c2nc(N3C[C@@H]4[C@H](C3)[C@H]4c3cnn(C4CC4)n3)n(C)c(=O)c2c1 [Compound 559, 6-chloro-3-(((R)-1-(2-((1R,5S,6R)-6-(2-cyclopropyl-2H-1,2,3-triazol-4-yl)-3-azabicyclo[3.1.0]hexan-3-yl)-3,6-dimethyl-4-oxo-3,4-dihydroquinazolin-8-yl)ethyl)amino)-N-(methylsulfonyl) picolinamide] |  |  | 250 to 500 | ≥ 5000 | 
9 | Cc1cc([C@@H](C)Nc2ccc(Cl)nc2C(=O)NS(C)(=O)=O)c2nc(N3CCC(c4cnn(C(C)C)n4)CC3)n(C)c(=O)c2c1 [Compound 744, (R)-6-chloro-3-((1-(2-(4-(2-isopropyl-2H-1,2,3-triazol-4-yl)piperidin-1-yl)-3,6-dimethyl-4-oxo-3,4-dihydroquinazolin-8-yl)ethyl)amino)-N-(methylsulfonyl) picolinamide] |  |  | 250 to 500 | ≥ 5000 | 
10 | Cc1cc([C@@H](C)Nc2ccc(Cl)nc2C(=O)NS(C)(=O)=O)c2nc(N3CC[C@@H](c4cnc(C)nc4)C3)n(C)c(=O)c2c1 (relative stereo) [Compound 657, 6-chloro-3-(((R)-1-(3,6-dimethyl-2-((R*)-3-(2-methylpyrimidin-5-yl)pyrrolidin-1-yl)-4-oxo-3,4-dihydroquinazolin-8-yl)ethyl)amino)-N-(methylsulfonyl) picolinamide] |  |  | 250 to 500 | ≥ 5000 | 
11 | Cc1cc([C@@H](C)Nc2ccc(Cl)nc2C(=O)NS(C)(=O)=O)c2nc(N3C[C@@H]4[C@H](C3)[C@H]4c3ccc(C)nc3)n(C)c(=O)c2c1 [Compound 449, 6-chloro-3-(((R)-1-(3,6-dimethyl-2-((1R,5S,6S)-6-(6-methylpyridin-3-yl)-3-azabicyclo[3.1.0]hexan-3-yl)-4-oxo-3,4-dihydroquinazolin-8-yl)ethyl)amino)-N-(methylsulfonyl) picolinamide] |  |  | 250 to 500 | ≥ 5000 | 
12 | Cc1cc([C@@H](C)Nc2ccc(Cl)nc2C(=O)NS(C)(=O)=O)c2nc(N3CCC4(CCN(c5ccn(C)n5)CC4)CC3)n(C)c(=O)c2c1 [Compound 361, (R)-6-chloro-3-((1-(3,6-dimethyl-2-(9-(1-methyl-1H-pyrazol-3-yl)-3,9-diazaspiro[5.5]undecan-3-yl)-4-oxo-3,4-dihydroquinazolin-8-yl)ethyl)amino)-N-(methylsulfonyl) picolinamide] | 250 to 500 | ≥ 5000 |  |  | 
13 | Cc1cc([C@@H](C)Nc2ccc(Cl)nc2C(=O)NS(C)(=O)=O)c2nc(N3Cc4ccc(C)nc4C3)n(C)c(=O)c2c1 [Compound 514, (R)-6-chloro-3-((1-(3,6-dimethyl-2-(2-methyl-5,7-dihydro-6H-pyrrolo[3,4-b]pyridin-6-yl)-4-oxo-3,4-dihydroquinazolin-8-yl)ethyl)amino)-N-(methylsulfonyl) picolinamide] |  |  | < 250 | 1000 to 5000 | 
14 | Cc1cc([C@@H](C)Nc2ccc(Cl)nc2C(=O)NS(C)(=O)=O)c2nc(N3C[C@@H]4CC(c5ccn(C)n5)C[C@H]4C3)n(C)c(=O)c2c1 (single isomer, unassigned) [Compound 426, 6-chloro-3-(((R)-1-(3,6-dimethyl-2-((3aR*,6aR*)-5-(1-methyl-1H-pyrazol-3-yl)hexahydrocyclopenta [c]pyrrol-2(1H)-yl)-4-oxo-3,4-dihydroquinazolin-8-yl)ethyl)amino)-N-(methylsulfonyl) picolinamide] | 250 to 500 | ≥ 5000 |  |  | 
15 | Cc1cc([C@@H](C)Nc2ccc(Cl)nc2C(=O)NS(C)(=O)=O)c2nc(N3CCC(n4cccn4)CC3)n(C)c(=O)c2c1 [Compound 199, (R)-3-((1-(2-(4-(1H-pyrazol-1-yl)piperidin-1-yl)-3,6-dimethyl-4-oxo-3,4-dihydroquinazolin-8-yl)ethyl)amino)-6-chloro-N-(methylsulfonyl) picolinamide] | < 250 | 1000 to 5000 |  |  | 
16 | Cc1cc([C@@H](C)Nc2ccc(Cl)nc2C(=O)NS(C)(=O)=O)c2nc(N3C[C@@H]4[C@H](C3)[C@H]4c3cnc(C(F)(F)F)nc3)n(C)c(=O)c2c1 [Compound 484, 6-chloro-3-(((R)-1-(3,6-dimethyl-4-oxo-2-((1R,5S,6S)-6-(2-(trifluoromethyl)pyrimidin-5-yl)-3-azabicyclo[3.1.0]hexan-3-yl)-3,4-dihydroquinazolin-8-yl)ethyl)amino)-N-(methylsulfonyl) picolinamide] |  |  | 250 to 500 | 1000 to 5000 | 
17 | Cc1cc([C@@H](C)Nc2ccc(Cl)nc2C(=O)NS(C)(=O)=O)c2nc(-c3ccc4nn(C)cc4c3)n(C3CC3)c(=O)c2c1 [Compound 847, (R)-6-chloro-3-((1-(3-cyclopropyl-6-methyl-2-(2-methyl-2H-indazol-5-yl)-4-oxo-3,4-dihydroquinazolin-8-yl)ethyl)amino)-N-(methylsulfonyl) picolinamide] |  |  |  |  | IC50 ([1]; T47D (PI3Kα-H1047R) cell line, phospho-AKT(S473) HTRF): < 250 nM; IC50 ([2]; SKBR3 (PI3Kα-Wild Type) cell line, phospho-AKT(S473) HTRF): 1000 to 5000 nM
18 | Cc1cc([C@@H](C)Nc2ccc(Cl)nc2C(=O)NS(C)(=O)=O)c2nc(N3CCC(c4nc(C)n(C(F)F)n4)CC3)n(C)c(=O)c2c1 [Compound 723, (R)-6-chloro-3-((1-(2-(4-(1-(difluoromethyl)-5-methyl-1H-1,2,4-triazol-3-yl)piperidin-1-yl)-3,6-dimethyl-4-oxo-3,4-dihydroquinazolin-8-yl)ethyl)amino)-N-(methylsulfonyl) picolinamide] |  |  | 250 to 500 | 1000 to 5000 | 
19 | [2H]C([2H])([2H])n1nccc1[C@H]1[C@@H]2CN(c3nc4c([C@@H](C)Nc5ccc(Cl)nc5C(=O)NS(C)(=O)=O)cc(C)cc4c(=O)n3C)C[C@@H]21 [Compound 494, 6-chloro-3-(((R)-1-(3,6-dimethyl-2-((1R,5S,6R)-6-(1-(methyl-d3)-1H-pyrazol-5-yl)-3-azabicyclo[3.1.0]hexan-3-yl)-4-oxo-3,4-dihydroquinazolin-8-yl)ethyl)amino)-N-(methylsulfonyl) picolinamide] |  |  | < 250 | 1000 to 5000 | 
